Data published in BindingDB's records for doi:10.1124/jpet.103.062398 (Institut De Recherches Servier, 2004).
Values joined by “and” are separate entries in the source; they are usually repeats but may differ in a detail not shown here. Identical values can stand only once.

Tests used:
[1] = molecular target: 5-hydroxytryptamine receptor 6 (Homo sapiens, UniProt P50406)
[2] = molecular target: 5-hydroxytryptamine receptor 7 (Homo sapiens, UniProt P34969)
D(2) dopamine receptor [3] = molecular target: D(2) dopamine receptor (Rattus norvegicus, UniProt P61169)
[4] = molecular target: 5-hydroxytryptamine receptor 3A (Mus musculus, UniProt P23979)
[5] = molecular target: Alpha-1A adrenergic receptor (Rattus norvegicus, UniProt P43140)
[6] = molecular target: 5-hydroxytryptamine receptor 5A (Homo sapiens, UniProt P47898)
[7] = molecular target: 5-hydroxytryptamine receptor 4 (Cavia porcellus, UniProt O70528)
D(3) dopamine receptor = D(3) dopamine receptor (Homo sapiens, UniProt P35462)
D(4) dopamine receptor = D(4) dopamine receptor (Homo sapiens, UniProt P21917)
D(2) dopamine receptor [8] = molecular target: D(2) dopamine receptor (Homo sapiens, UniProt P14416)
[9] = molecular target: 5-hydroxytryptamine receptor 1A (Homo sapiens, UniProt P08908)
[10] = molecular target: 5-hydroxytryptamine receptor 2A (Homo sapiens, UniProt P28223)
[11] = molecular target: T1, Alpha-2A adrenergic receptor [16-465] (Rattus norvegicus, UniProt P22909)
T1 construct: 16-465

[12] = molecular target: 5-hydroxytryptamine receptor 1B (Homo sapiens, UniProt P28222)
[13] = molecular target: 5-hydroxytryptamine receptor 1D (Homo sapiens, UniProt P28221)
[14] = molecular target: 5-hydroxytryptamine receptor 2B (Homo sapiens, UniProt P41595)
[15] = molecular target: Alpha-1A adrenergic receptor (Homo sapiens, UniProt P35348)
[16] = molecular target: Alpha-2B adrenergic receptor (Homo sapiens, UniProt P18089)
[17] = molecular target: Alpha-2C adrenergic receptor (Homo sapiens, UniProt P18825)
[18] = molecular target: Alpha-1B adrenergic receptor (Homo sapiens, UniProt P35368)
[19] = molecular target: Alpha-1D adrenergic receptor (Homo sapiens, UniProt P25100)
[20] = molecular target: 5-hydroxytryptamine receptor 2C (Homo sapiens, UniProt P28335)
[21] = molecular target: Alpha-2A adrenergic receptor (Homo sapiens, UniProt P08913)

Chain of D(2) dopamine receptor (Homo sapiens, UniProt P14416) (P14416 whole entry): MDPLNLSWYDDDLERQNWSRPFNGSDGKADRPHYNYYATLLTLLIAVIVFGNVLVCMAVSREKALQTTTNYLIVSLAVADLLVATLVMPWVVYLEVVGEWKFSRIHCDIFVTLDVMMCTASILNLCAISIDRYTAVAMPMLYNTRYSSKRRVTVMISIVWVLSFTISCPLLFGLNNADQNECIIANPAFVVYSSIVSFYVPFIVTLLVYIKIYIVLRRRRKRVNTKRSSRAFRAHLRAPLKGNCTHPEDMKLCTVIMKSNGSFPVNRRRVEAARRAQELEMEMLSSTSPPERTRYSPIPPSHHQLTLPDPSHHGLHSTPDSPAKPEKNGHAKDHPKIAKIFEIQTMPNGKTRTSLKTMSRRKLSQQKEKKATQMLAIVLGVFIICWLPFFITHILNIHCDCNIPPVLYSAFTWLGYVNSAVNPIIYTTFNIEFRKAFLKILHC
Chain of D(3) dopamine receptor (P35462 as listed by the source): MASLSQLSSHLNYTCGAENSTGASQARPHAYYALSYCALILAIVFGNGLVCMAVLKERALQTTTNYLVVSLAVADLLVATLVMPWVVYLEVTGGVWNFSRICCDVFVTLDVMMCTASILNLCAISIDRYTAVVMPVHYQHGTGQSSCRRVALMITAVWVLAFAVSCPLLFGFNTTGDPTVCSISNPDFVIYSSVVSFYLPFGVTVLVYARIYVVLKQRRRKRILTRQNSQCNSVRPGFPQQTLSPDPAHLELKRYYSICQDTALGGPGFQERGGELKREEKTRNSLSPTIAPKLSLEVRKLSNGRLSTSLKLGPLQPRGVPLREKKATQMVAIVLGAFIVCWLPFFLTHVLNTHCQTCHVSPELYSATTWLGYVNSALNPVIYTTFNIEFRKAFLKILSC
Chain of 5-hydroxytryptamine receptor 6 (P50406 whole entry): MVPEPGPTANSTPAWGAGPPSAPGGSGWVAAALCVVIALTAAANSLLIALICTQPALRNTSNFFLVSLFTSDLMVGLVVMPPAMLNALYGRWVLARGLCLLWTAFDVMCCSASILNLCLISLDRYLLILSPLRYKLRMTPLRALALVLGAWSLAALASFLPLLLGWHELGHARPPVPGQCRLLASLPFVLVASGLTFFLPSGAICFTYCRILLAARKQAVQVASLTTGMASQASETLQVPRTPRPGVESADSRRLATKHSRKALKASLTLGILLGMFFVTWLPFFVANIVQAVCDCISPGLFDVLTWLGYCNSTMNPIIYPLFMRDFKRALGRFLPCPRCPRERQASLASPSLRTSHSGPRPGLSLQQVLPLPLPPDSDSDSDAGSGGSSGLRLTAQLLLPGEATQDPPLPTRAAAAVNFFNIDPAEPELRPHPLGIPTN
Chain of 5-hydroxytryptamine receptor 4 (O70528 whole entry): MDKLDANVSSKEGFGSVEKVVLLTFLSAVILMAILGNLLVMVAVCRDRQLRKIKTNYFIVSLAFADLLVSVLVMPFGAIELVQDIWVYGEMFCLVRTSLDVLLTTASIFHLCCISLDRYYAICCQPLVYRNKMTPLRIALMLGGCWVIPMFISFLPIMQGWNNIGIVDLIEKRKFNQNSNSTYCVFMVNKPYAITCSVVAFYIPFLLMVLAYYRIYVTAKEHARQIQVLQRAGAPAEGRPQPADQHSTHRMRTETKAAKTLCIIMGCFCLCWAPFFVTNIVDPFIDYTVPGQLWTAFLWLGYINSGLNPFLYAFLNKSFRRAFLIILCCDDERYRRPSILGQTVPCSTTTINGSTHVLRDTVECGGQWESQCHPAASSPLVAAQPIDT
Chain of Alpha-1A adrenergic receptor (Rattus norvegicus, UniProt P43140) (P43140 whole entry): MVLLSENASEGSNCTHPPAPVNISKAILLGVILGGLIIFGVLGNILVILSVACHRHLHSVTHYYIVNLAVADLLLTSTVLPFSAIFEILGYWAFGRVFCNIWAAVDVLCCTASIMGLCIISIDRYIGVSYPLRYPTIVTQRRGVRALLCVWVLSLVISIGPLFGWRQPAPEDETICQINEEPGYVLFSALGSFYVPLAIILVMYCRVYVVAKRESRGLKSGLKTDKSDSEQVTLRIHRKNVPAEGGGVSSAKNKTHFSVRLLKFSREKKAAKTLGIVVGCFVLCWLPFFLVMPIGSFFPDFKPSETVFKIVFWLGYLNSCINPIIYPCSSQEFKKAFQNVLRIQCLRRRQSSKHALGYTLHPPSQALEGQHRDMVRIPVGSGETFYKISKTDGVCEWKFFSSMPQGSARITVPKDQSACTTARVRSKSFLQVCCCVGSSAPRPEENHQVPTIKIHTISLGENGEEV
Chain of 5-hydroxytryptamine receptor 7 (P34969 whole entry): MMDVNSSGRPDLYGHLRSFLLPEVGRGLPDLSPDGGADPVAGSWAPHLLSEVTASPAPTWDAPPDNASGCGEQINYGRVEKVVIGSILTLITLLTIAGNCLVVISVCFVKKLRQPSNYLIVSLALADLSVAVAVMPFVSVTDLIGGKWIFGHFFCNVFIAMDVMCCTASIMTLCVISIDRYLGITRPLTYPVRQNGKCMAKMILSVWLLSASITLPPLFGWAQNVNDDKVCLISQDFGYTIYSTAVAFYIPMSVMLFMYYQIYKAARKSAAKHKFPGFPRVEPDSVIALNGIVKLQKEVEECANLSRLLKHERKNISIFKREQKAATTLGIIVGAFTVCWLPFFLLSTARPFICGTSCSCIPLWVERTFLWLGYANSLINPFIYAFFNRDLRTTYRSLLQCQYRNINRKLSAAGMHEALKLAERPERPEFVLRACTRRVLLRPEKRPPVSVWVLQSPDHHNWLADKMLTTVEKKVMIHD
Chain of D(2) dopamine receptor (Rattus norvegicus, UniProt P61169) (P61169 whole entry): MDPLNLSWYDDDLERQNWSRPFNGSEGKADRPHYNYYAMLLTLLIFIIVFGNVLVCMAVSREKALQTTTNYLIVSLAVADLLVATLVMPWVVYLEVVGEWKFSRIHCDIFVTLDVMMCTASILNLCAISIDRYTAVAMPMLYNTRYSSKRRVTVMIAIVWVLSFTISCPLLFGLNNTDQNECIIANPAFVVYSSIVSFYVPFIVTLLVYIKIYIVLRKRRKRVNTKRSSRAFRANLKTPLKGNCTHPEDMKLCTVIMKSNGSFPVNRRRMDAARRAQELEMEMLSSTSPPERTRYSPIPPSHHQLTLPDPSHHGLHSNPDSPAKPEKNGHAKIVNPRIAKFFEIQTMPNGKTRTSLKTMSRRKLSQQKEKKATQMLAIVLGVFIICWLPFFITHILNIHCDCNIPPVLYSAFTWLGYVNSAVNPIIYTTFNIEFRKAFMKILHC
Chain of 5-hydroxytryptamine receptor 3A (P23979 as listed by the source): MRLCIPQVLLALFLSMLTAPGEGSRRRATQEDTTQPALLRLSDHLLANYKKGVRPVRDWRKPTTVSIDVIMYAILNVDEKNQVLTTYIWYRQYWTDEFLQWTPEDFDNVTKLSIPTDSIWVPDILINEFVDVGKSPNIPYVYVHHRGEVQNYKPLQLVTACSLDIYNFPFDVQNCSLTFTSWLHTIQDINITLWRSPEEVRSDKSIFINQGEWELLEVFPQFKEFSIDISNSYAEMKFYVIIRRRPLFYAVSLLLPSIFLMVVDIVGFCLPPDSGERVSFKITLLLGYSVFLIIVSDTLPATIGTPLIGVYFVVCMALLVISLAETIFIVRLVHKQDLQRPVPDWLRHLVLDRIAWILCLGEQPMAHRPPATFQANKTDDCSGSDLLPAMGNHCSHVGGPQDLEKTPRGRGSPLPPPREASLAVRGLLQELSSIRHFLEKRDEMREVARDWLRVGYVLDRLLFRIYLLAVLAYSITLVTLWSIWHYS
Chain of 5-hydroxytryptamine receptor 5A (P47898 whole entry): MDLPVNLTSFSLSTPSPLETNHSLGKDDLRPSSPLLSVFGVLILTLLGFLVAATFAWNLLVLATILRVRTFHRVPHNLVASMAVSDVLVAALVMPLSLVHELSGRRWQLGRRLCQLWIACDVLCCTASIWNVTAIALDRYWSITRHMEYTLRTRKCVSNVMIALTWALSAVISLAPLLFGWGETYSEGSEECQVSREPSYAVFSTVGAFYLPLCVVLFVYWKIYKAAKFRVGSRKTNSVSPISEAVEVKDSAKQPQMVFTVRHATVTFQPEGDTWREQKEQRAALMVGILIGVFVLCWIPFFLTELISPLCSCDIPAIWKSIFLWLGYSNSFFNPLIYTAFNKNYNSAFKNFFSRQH
Chain of 5-hydroxytryptamine receptor 1D (P28221 whole entry): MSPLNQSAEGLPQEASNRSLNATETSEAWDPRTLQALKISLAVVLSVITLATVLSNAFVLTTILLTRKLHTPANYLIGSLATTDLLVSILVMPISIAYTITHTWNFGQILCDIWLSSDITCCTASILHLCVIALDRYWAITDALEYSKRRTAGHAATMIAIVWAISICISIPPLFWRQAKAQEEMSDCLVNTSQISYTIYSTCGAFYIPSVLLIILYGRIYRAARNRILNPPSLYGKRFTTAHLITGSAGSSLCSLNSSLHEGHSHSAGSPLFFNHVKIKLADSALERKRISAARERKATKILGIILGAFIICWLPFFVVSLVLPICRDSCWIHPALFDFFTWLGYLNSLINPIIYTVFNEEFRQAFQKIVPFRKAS
Chain of Alpha-1A adrenergic receptor (Homo sapiens, UniProt P35348) (P35348 whole entry): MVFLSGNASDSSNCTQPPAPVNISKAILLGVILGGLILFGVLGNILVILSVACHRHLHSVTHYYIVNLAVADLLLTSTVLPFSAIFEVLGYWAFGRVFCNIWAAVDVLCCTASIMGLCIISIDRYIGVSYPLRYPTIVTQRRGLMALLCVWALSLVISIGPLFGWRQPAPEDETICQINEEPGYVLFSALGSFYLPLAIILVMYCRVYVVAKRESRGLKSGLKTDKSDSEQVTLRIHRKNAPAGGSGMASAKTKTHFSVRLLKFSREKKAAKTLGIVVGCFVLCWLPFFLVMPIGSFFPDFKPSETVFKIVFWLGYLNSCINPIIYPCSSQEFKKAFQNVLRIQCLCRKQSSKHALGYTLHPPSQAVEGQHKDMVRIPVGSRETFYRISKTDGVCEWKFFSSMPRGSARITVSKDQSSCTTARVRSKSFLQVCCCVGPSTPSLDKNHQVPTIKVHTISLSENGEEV

| Ki (D(3) dopamine receptor) | Ki (D(2) dopamine receptor [8]) | Structure (SMILES) | Ki [1] | Ki [2] | Ki (D(2) dopamine receptor [3]) | Ki [4] | Ki [5] | Ki [6] | Ki [7] | also measured |
| --- | --- | --- | --- | --- | --- | --- | --- | --- | --- | --- |
|  |  | CCCN(CCC)CCc1cccc2c1CC(=O)N2 | > 10000 nM | 1510 nM | 1150 nM | > 10000 nM | > 10000 nM | > 10000 nM | > 10000 nM |  |
| 8.91 nM | 513 nM and 355 nM | CCCN1CCO[C@@H]2c3cc(C(N)=O)ccc3CC[C@H]21 [S32504 (+)] |  |  | 457 nM |  |  |  |  | Ki (D(4) dopamine receptor): 5130 nM |
| 8.91 nM |  | CCCN1CCOC2c3cc(C(N)=O)ccc3CCC21 (stereo not drawn) [S32504] | > 10000 nM | 661 nM |  | > 10000 nM | > 10000 nM | > 10000 nM | > 10000 nM | Ki [9]: 257 nM; Ki [10]: 5250 nM; Ki [11]: > 10000 nM; Ki [12]: > 10000 nM; Ki [13]: 263 nM; Ki [14]: 4570 nM; Ki [15]: > 10000 nM; Ki [16]: 1660 nM; Ki [17]: > 10000 nM; Ki [18]: > 10000 nM; Ki [19]: > 10000 nM; Ki [20]: > 10000 nM; Ki [21]: 8130 nM |
| 0.26 nM | 29.5 nM | N#Cc1ccc2c(c1)[C@H]1CN(CCCCNC(=O)c3ccc(-c4ccccc4)cc3)C[C@@H]1CO2 [S33084] |  |  |  |  |  |  |  |  |
